Key:
reverse transcriptase = target: T1, reverse transcriptase (Human immunodeficiency virus type 1 group M subtype B, UniProt P04585); assay: Biochemical reverse transcriptase assay (Reverse Transcriptase Assay, colorimetric, Roche); settings: read-out: IC50(nM) RT assay
T1 construct: negative control (mixture without reverse transcriptase); purchased Roche Diagnostics GmbH, Mannheim, Germany
Method: The “Reverse Transcriptase Assay, colorimetric” (Roche Diagnostics GmbH, Mannheim, Germany) is used in accordance with the manufacturer's information. The test substances are dissolved in DMSO and are used in the test diluted in 5-fold steps (final DMSO concentration 1%). The resulting values of the photometric evaluation (405/492 nm) are less than 0.1 for the negative control (mixture without reverse transcriptase) and are in the region of 1.5 for the positive control (mixture without test substance). The IC50 values of the test substances are determined as the concentration of the test substance dilution at which the measured optical density is 50% of the positive control.

HIV-1LAI = assay: H9 assay with wild-type HIV-1LAI (AlamarBlue, supernatant infection); assay type: cell-based; settings: Human immunodeficiency virus 1, H9 cells, 10% FCS
Method: For the mixture for a 96-well MTP, 3 million PBLs are pelleted, suspended in 1 ml of RPMI 1640 medium/10% FCS and incubated together with a suitable amount of HIV-1LAI (NIH AIDS Research & Reference Reagent Program, Germantown, USA) at 37° C. for 2 hours (pellet infection). Unadsorbed viruses are subsequently washed out with PBS, and the infected cells are pelleted again and suspended in 18 ml of RPMI 1640 medium/10% FCS/interleukin-2 (40 U/ml). 180 μl thereof are pipetted into each well of a white 96-well MTP with 20 μl of test substance in suitable dilution. Alternatively, after preparation of the substance dilutions in the MTP, the HIV is pipetted in together with the cells and is not washed out again (supernatant infection). In order to avoid edge effects, the wells at the edge of the MTP are not used for substance dilutions. The second vertical row of the MTP contains only infected cells (virus control) and the eleventh vertical row only uninfected cells (cell control), in each case in RPMI 1640 medium/10% FCS/interleukin-2 (40 U/ml). The other wells of the MTP contain the compounds of the invention in various concentrations starting from the third vertical row, from which the test substances are diluted in 3-fold steps up to the tenth vertical row 3^7-fold. The test substances are dissolved in DMSO, whereby the final DMSO concentration in the test mixture is 1%. The test mixtures are incubated at 37° C./5% CO2. After 5 and 7 days, 50 μl of cell-free supernatant are removed from each well to determine the amount of p24 present by means of a p24 ELISA (HIV-1 p24^CA Antigen Capture Assay Kit, NCI-Frederick Cancer Research and Development Center, Frederick, USA). From the resulting values of the photometric evaluation (450/620 nm) the EC50 values of the test substances are determined as the concentration at which the amount of p24 is 50% of the untreated infected cells.
Alternatively, H9 cells (ATCC, Wesel, Germany) are employed instead of PBLs for testing the test substances. H9 cells are incubated in RPMI 1640 medium with 2% or 10% FCS as a HIV-1LAI supernatant infection at 37° C./5% CO2, (20 μl of substance dilution and 80 μl of cells/virus per well) in accordance with the pattern described above for 5 days. Subsequently, 10 μl of AlamarBlue (Invitrogen, Karlsruhe, Germany) are added to each well, and the MTPs are incubated at 37° C. for 3 hours before the fluorimetric evaluation takes place (544/590 nm). The resulting values are about 40 000 for the untreated uninfected cells and about 7000 for the untreated infected cells. In the low concentration range, the EC50 values of the test substances are determined as the concentration at which the fluorescence is 50% of the untreated uninfected cells (in each case subtracting the values of the untreated infected cells). In addition, in the high concentration range, the CC50 values of the test substances are determined as the concentration at which the fluorescence is 50% of the untreated uninfected cells (in each case subtracting the values of the untreated infected cells).

HIV-1NL4-3 wt = assay: Light assay with wild-type HI reporter virus in MT4 7F2 cells; assay type: cell-based; settings: Human immunodeficiency virus 1, read-out: EC50(nM) MT4 7F2 cells HIV-1NL4-3 wt 2% FCS
Method: (§1) For the mixture for a 96-well MTP, 3 million MT4 7F2 cells are pelleted, suspended in 1 ml of RPMI 1640 medium without phenol red (Invitrogen, Karlsruhe, Germany)/10% FCS/10% AIM-V (Invitrogen, Karlsruhe, Germany) and incubated together with a suitable amount of the corresponding HIV-1NL4-3 reporter virus at 37° C. for 2 hours (pellet infection). Unadsorbed viruses are subsequently washed out with PBS, and the infected cells are pelleted again and suspended in 8 ml of RPMI 1640 medium without phenol red/2% or 10% FCS/10% AIM-V. 80 μl thereof are pipetted into each well of a white 96-well MTP with 20 μl of test substance in suitable dilution. To avoid edge effects, the wells on the edge of the MTP are not used for substance dilutions. The second vertical row of the MTP contains only infected cells (virus control) and the eleventh vertical row only uninfected cells (cell control), in each case in RPMI 1640 medium without phenol red/2% or 10% FCS/10% AIM-V. The other wells of the MTP contain the compounds of the invention in various concentrations starting from the third vertical row, from which the test substances are diluted in 3-fold steps up to the tenth vertical row 3^7-fold. The test substances are dissolved in DMSO, whereby the final DMSO concentration in the test mixture is 1%. The test mixtures are incubated at 37° C./5% CO2 for five days and, after the addition of 15 μl of Lu164 substrate (5 mg/ml coelenterazine dissolved in 30 μM glutathione/DMSO, 100 mM NaCl, 1M MES, 100 mM glutathione), evaluated by luminometry. The resulting values are in the region of 1 000 000 RLUs (relative light units) for the virus control and 300 to 400 RLUs for the cell control. The EC50 values of the test substances are determined as the concentration at which the virus replication measured in RLUs is 50% of the untreated infected cells.

HIV-1NL4-3 K103N-Y181C = assay: Light assay with inhibitor-resistant HI reporter virus in MT4 7F2 cells; assay type: cell-based; settings: Human immunodeficiency virus 1, read-out: EC50(nM) MT4 7F2 cells HIV-1NL4-3 K103N-Y181C 2% FCS
Method: as §1

Compound | IC50 (reverse transcriptase) [nM] | EC50 (HIV-1LAI) [nM] | EC50 (HIV-1NL4-3 wt) [nM] | EC50 (HIV-1NL4-3 K103N-Y181C) [nM]
O=C1CN(C(=O)c2cc(-c3cccc(Cl)c3)c(-c3cc(F)cc(Cl)c3)s2)CN1 [Example 5, 1-{[5-(3-Chloro-5-fluorophenyl)-4-(3-chlorophenyl)thiophen-2-yl]carbonyl}imidazolidin-4-one] | 2170 | 85 | 21 | 258
N#Cc1cc(F)cc(-c2sc(C(=O)N3CNC(=O)C3)cc2-c2cccc(Cl)c2)c1 [Example 11, 3-{3-(3-Chlorophenyl)-5-[(4-oxoimidazolidin-1-yl)carbonyl]thiophen-2-yl}-5-fluorobenzenecarbonitrile] |  | 22 | 2 | 123
O=C1CN(C(=O)c2cc(-c3cccc(Cl)c3)c(-c3cccc(OC(F)(F)F)c3)s2)CN1 [Example 7, 1-({4-(3-Chlorophenyl)-5-[3-(trifluoromethoxy)phenyl]thiophen-2-yl}carbonyl)imidazolidin-4-one] |  | 1410 | 100 | 150
N#Cc1cccc(-c2cc(C(=O)N3CNC(=O)C3)sc2-c2cccc(Cl)c2)c1 [Example 3, 3-{2-(3-Chlorophenyl)-5-[(4-oxoimidazolidin-1-yl)carbonyl]thiophen-3-yl}benzenecarbonitrile] | 740 | 71 | 5 | 100
N#Cc1cc(F)cc(-c2sc(C(=O)N3CNC(=O)C3)cc2-c2ccc(F)c(Cl)c2)c1 [Example 10, 3-{3-(3-Chloro-4-fluorophenyl)-5-[(4-oxoimidazolidin-1-yl)carbonyl]thiophen-2-yl}-5-fluorobenzenecarbonitrile] |  | 34 | 5 | 40
N#Cc1cccc(-c2cc(C(=O)N3CNC(=O)C3)sc2-c2cc(F)cc(Cl)c2)c1 [Example 1, 3-{2-(3-Chloro-5-fluorophenyl)-5-[(4-oxoimidazolidin-1-yl)carbonyl]thiophen-3-yl}benzenecarbonitrile] |  | 9 | 1 | 45
O=C1CN(C(=O)c2cc(-c3ccc(F)c(Cl)c3)c(-c3cc(F)cc(Cl)c3)s2)CN1 [Example 2, 1-{[4-(3-Chloro-4-fluorophenyl)-5-(3-chloro-5-fluorophenyl)thiophen-2-yl]carbonyl}imidazolidin-4-one] | 920 | 68 | 20 | 176
N#Cc1cc(-c2sc(C(=O)N3CNC(=O)C3)cc2-c2cccc(Cl)c2)ccc1F [Example 6, 5-{3-(3-Chlorophenyl)-5-[(4-oxoimidazolidin-1-yl)carbonyl]thiophen-2-yl}-2-fluorobenzenecarbonitrile] |  | 900 | 165 | 348
N#Cc1cc(-c2cc(C(=O)N3CNC(=O)C3)sc2-c2cc(F)cc(Cl)c2)ccc1F [Example 4, 5-{2-(3-Chloro-5-fluorophenyl)-5-[(4-oxoimidazolidin-1-yl)carbonyl]thiophen-3-yl}-2-fluorobenzenecarbonitrile] |  | 12 | < 1.5 | 44
N#Cc1cc(-c2cc(C(=O)N3CNC(=O)C3)sc2-c2cccc(Cl)c2)ccc1F [Example 8, 5-{2-(3-Chlorophenyl)-5-[(4-oxoimidazolidin-1-yl)carbonyl]thiophen-3-yl}-2-fluorobenzenecarbonitrile] |  | 103 | 5 | 121
O=C1CN(C(=O)c2cc(-c3ccc(F)c(Cl)c3)c(-c3cccc(Cl)c3)s2)CN1 [Example 9, 1-{[4-(3-Chloro-4-fluorophenyl)-5-(3-chlorophenyl)thiophen-2-yl]carbonyl}imidazolidin-4-one] |  | 593 | 35 | 260

— patent US8546438B2, “Substituted (thiophenyl-carbonyl)imidazolidinones, and use thereof” (priority 2008, dated 2013)
